According to the NIST ThermoML archive (doi:10.1021/acs.jced.7b00201):
± gives the expanded uncertainty stated by the source.

Test: xn = mol fraction of the nth substance listed
Details: 100 kPa, Liquid; for viscosity: Falling or rolling sphere viscometry; for mass density: Vibrating tube method

OCC1CC1 [cyclopropylmethanol] + CCCCC1CCCCC1
Details | mass density [kg/m3] | viscosity [mPa·s]
293.15 K, x1 = 0.1039 | 803.82 ± 1 | 1.319 ± 0.028
293.15 K, x1 = 0.2031 | 809.39 ± 1 | 1.383 ± 0.029
293.15 K, x1 = 0.3022 | 815.9 ± 1 | 1.475 ± 0.031
293.15 K, x1 = 0.3997 | 823.34 ± 1 | 1.602 ± 0.034
293.15 K, x1 = 0.4993 | 832.12 ± 1 | 1.778 ± 0.038
293.15 K, x1 = 0.5994 | 842.55 ± 1 | 2.006 ± 0.043
293.15 K, x1 = 0.7 | 855.1 ± 1 | 2.299 ± 0.049
293.15 K, x1 = 0.797 | 869.68 ± 1 | 2.67 ± 0.057
293.15 K, x1 = 0.9004 | 889.05 ± 1 | 3.23 ± 0.069
293.15 K, x1 = 1 | 912.99 ± 1 | 4.029 ± 0.086
298.15 K, x1 = 0.1039 | 800.02 ± 1 | 1.212 ± 0.026
298.15 K, x1 = 0.2031 | 805.52 ± 1 | 1.265 ± 0.027
298.15 K, x1 = 0.3022 | 812 ± 1 | 1.343 ± 0.029
298.15 K, x1 = 0.3997 | 819.39 ± 1 | 1.451 ± 0.031
298.15 K, x1 = 0.4993 | 828.15 ± 1 | 1.601 ± 0.034
298.15 K, x1 = 0.5994 | 838.56 ± 1 | 1.79 ± 0.038
298.15 K, x1 = 0.7 | 851.09 ± 1 | 2.038 ± 0.044
298.15 K, x1 = 0.797 | 865.66 ± 1 | 2.355 ± 0.05
298.15 K, x1 = 0.9004 | 885.02 ± 1 | 2.821 ± 0.06
298.15 K, x1 = 1 | 908.94 ± 1 | 3.485 ± 0.075
303.15 K, x1 = 0.1039 | 796.16 ± 1 | 1.117 ± 0.024
303.15 K, x1 = 0.2031 | 801.61 ± 1 | 1.162 ± 0.025
303.15 K, x1 = 0.3022 | 808.04 ± 1 | 1.228 ± 0.026
303.15 K, x1 = 0.3997 | 815.4 ± 1 | 1.319 ± 0.028
303.15 K, x1 = 0.4993 | 824.14 ± 1 | 1.448 ± 0.031
303.15 K, x1 = 0.5994 | 834.52 ± 1 | 1.607 ± 0.034
303.15 K, x1 = 0.7 | 847.04 ± 1 | 1.817 ± 0.039
303.15 K, x1 = 0.797 | 861.6 ± 1 | 2.084 ± 0.045
303.15 K, x1 = 0.9004 | 880.95 ± 1 | 2.48 ± 0.053
303.15 K, x1 = 1 | 904.85 ± 1 | 3.037 ± 0.065
308.15 K, x1 = 0.1039 | 792.28 ± 1 | 1.034 ± 0.022
308.15 K, x1 = 0.2031 | 797.68 ± 1 | 1.072 ± 0.023
308.15 K, x1 = 0.3022 | 804.06 ± 1 | 1.128 ± 0.024
308.15 K, x1 = 0.3997 | 811.39 ± 1 | 1.205 ± 0.026
308.15 K, x1 = 0.4993 | 820.09 ± 1 | 1.315 ± 0.028
308.15 K, x1 = 0.5994 | 830.45 ± 1 | 1.45 ± 0.031
308.15 K, x1 = 0.7 | 842.95 ± 1 | 1.628 ± 0.035
308.15 K, x1 = 0.797 | 857.5 ± 1 | 1.855 ± 0.04
308.15 K, x1 = 0.9004 | 876.84 ± 1 | 2.192 ± 0.047
308.15 K, x1 = 1 | 900.74 ± 1 | 2.661 ± 0.057
313.15 K, x1 = 0.1039 | 788.38 ± 1 | 0.96 ± 0.02
313.15 K, x1 = 0.2031 | 793.72 ± 1 | 0.984 ± 0.021
313.15 K, x1 = 0.3022 | 800.06 ± 1 | 1.04 ± 0.022
313.15 K, x1 = 0.3997 | 807.34 ± 1 | 1.106 ± 0.024
313.15 K, x1 = 0.4993 | 816.02 ± 1 | 1.198 ± 0.026
313.15 K, x1 = 0.5994 | 826.34 ± 1 | 1.314 ± 0.028
313.15 K, x1 = 0.7 | 838.82 ± 1 | 1.466 ± 0.031
313.15 K, x1 = 0.797 | 853.35 ± 1 | 1.659 ± 0.036
313.15 K, x1 = 0.9004 | 872.69 ± 1 | 1.947 ± 0.042
313.15 K, x1 = 1 | 896.58 ± 1 | 2.344 ± 0.05
318.15 K, x1 = 0.1039 | 784.47 ± 1 | 0.895 ± 0.019
318.15 K, x1 = 0.2031 | 789.74 ± 1 | 0.919 ± 0.02
318.15 K, x1 = 0.3022 | 796.03 ± 1 | 0.963 ± 0.021
318.15 K, x1 = 0.3997 | 803.27 ± 1 | 1.019 ± 0.022
318.15 K, x1 = 0.4993 | 811.9 ± 1 | 1.098 ± 0.023
318.15 K, x1 = 0.5994 | 822.19 ± 1 | 1.197 ± 0.026
318.15 K, x1 = 0.7 | 834.65 ± 1 | 1.327 ± 0.028
318.15 K, x1 = 0.797 | 849.17 ± 1 | 1.491 ± 0.032
318.15 K, x1 = 0.9004 | 868.5 ± 1 | 1.735 ± 0.037
318.15 K, x1 = 1 | 892.38 ± 1 | 2.074 ± 0.044
323.15 K, x1 = 0.1039 | 780.53 ± 1 | 0.837 ± 0.018
323.15 K, x1 = 0.2031 | 785.74 ± 1 | 0.861 ± 0.018
323.15 K, x1 = 0.3022 | 791.97 ± 1 | 0.894 ± 0.019
323.15 K, x1 = 0.3997 | 799.16 ± 1 | 0.941 ± 0.02
323.15 K, x1 = 0.4993 | 807.75 ± 1 | 1.01 ± 0.022
323.15 K, x1 = 0.5994 | 818.01 ± 1 | 1.094 ± 0.023
323.15 K, x1 = 0.7 | 830.44 ± 1 | 1.205 ± 0.026
323.15 K, x1 = 0.797 | 844.94 ± 1 | 1.345 ± 0.029
323.15 K, x1 = 0.9004 | 864.26 ± 1 | 1.555 ± 0.033
323.15 K, x1 = 1 | 888.13 ± 1 | 1.843 ± 0.04
328.15 K, x1 = 0.1039 | 776.57 ± 1 | 0.784 ± 0.017
328.15 K, x1 = 0.2031 | 781.71 ± 1 | 0.808 ± 0.017
328.15 K, x1 = 0.3022 | 787.87 ± 1 | 0.832 ± 0.018
328.15 K, x1 = 0.3997 | 795.01 ± 1 | 0.873 ± 0.019
328.15 K, x1 = 0.4993 | 803.56 ± 1 | 0.931 ± 0.02
328.15 K, x1 = 0.5994 | 813.78 ± 1 | 1.003 ± 0.021
328.15 K, x1 = 0.7 | 826.18 ± 1 | 1.098 ± 0.023
328.15 K, x1 = 0.797 | 840.66 ± 1 | 1.22 ± 0.026
328.15 K, x1 = 0.9004 | 859.97 ± 1 | 1.399 ± 0.03
328.15 K, x1 = 1 | 883.84 ± 1 | 1.646 ± 0.035
333.15 K, x1 = 0.1039 | 772.6 ± 1 | 0.736 ± 0.016
333.15 K, x1 = 0.2031 | 777.65 ± 1 | 0.758 ± 0.016
333.15 K, x1 = 0.3022 | 783.75 ± 1 | 0.777 ± 0.017
333.15 K, x1 = 0.3997 | 790.83 ± 1 | 0.812 ± 0.017
333.15 K, x1 = 0.4993 | 799.33 ± 1 | 0.862 ± 0.018
333.15 K, x1 = 0.5994 | 809.5 ± 1 | 0.923 ± 0.02
333.15 K, x1 = 0.7 | 821.87 ± 1 | 1.005 ± 0.022
333.15 K, x1 = 0.797 | 836.33 ± 1 | 1.109 ± 0.024
333.15 K, x1 = 0.9004 | 855.62 ± 1 | 1.264 ± 0.027
333.15 K, x1 = 1 | 879.49 ± 1 | 1.476 ± 0.032
338.15 K, x1 = 0.1039 | 768.6 ± 1 | 0.697 ± 0.015
338.15 K, x1 = 0.2031 | 773.56 ± 1 | 0.718 ± 0.015
338.15 K, x1 = 0.3022 | 779.59 ± 1 | 0.733 ± 0.016
338.15 K, x1 = 0.3997 | 786.61 ± 1 | 0.767 ± 0.016
338.15 K, x1 = 0.4993 | 795.05 ± 1 | 0.801 ± 0.017
338.15 K, x1 = 0.5994 | 805.18 ± 1 | 0.853 ± 0.018
338.15 K, x1 = 0.7 | 817.51 ± 1 | 0.923 ± 0.02
338.15 K, x1 = 0.797 | 831.94 ± 1 | 1.012 ± 0.022
338.15 K, x1 = 0.9004 | 851.21 ± 1 | 1.146 ± 0.025
338.15 K, x1 = 1 | 875.07 ± 1 | 1.328 ± 0.028
343.15 K, x1 = 0.1039 | 764.58 ± 1 | 0.656 ± 0.014
343.15 K, x1 = 0.2031 | 769.4 ± 1 | 0.668 ± 0.014
343.15 K, x1 = 0.3022 | 775.39 ± 1 | 0.684 ± 0.015
343.15 K, x1 = 0.3997 | 782.35 ± 1 | 0.709 ± 0.015
343.15 K, x1 = 0.4993 | 790.73 ± 1 | 0.746 ± 0.016
343.15 K, x1 = 0.5994 | 800.8 ± 1 | 0.79 ± 0.017
343.15 K, x1 = 0.7 | 813.09 ± 1 | 0.85 ± 0.018
343.15 K, x1 = 0.797 | 827.49 ± 1 | 0.928 ± 0.02
343.15 K, x1 = 0.9004 | 846.74 ± 1 | 1.043 ± 0.022
343.15 K, x1 = 1 | 870.62 ± 1 | 1.201 ± 0.026
